Like-named read-outs stand apart in the source and are kept apart here. Marks after values point to notes of the source that are not given here.
Key:
[1] = Fluorescence lifetime by time correlated single photon counting (TCSPC); format: physicochemical; settings: for Lifetime at 700 nm (ns): excitation 650 nm, emission 700 nm
Experimental: Fluorescence lifetime (FLT) was measured using time correlated single photon counting (TCSPC) technique with excitation sources NanoLed® (HORIBA Jobin Yvon Inc.) at 700 nm and 773 nm and impulse repetition rate of 1 MHz at 90° to a R928P detector (Hamamatsu Photonics, Japan). The detector was set to either 750 nm (for Nanoled 700 nm) or for 820 nm (for Nanoled 773 nm) with a 20 nm bandpass. The electrical signal was amplified by TB-02 pulse amplifier (HORIBA Jobin Yvon Inc.) and the amplified signal was fed to the constant fraction discriminator CFD (Philips, Netherlands). The first detected photon represented the start signal by the time-to-amplitude converter (TAC) and the excitation pulse triggered the stop signal. The multi-channel analyzer (MCA) recorded repetitive start-stop signals from the TAC and generated a histogram of photons as a function of time-calibrated channels (6.878 ps/channel) until the peak signal reached 10,000 counts. The lifetime was recorded on a 50 ns scale. The instrument response function was obtained by using Rayleigh scatter of Ludox-40 (Sigma-Aldrich, St. Louis, Mo.) (0.03% in Milli-Q water) in a quartz cuvette at either 700 nm or 773 nm emission. DAS6 v6.1 decay analysis software (HORIBA Jobin Yvon Inc.) was used for lifetime calculations. The goodness of fit was judged by χ^2 values and Durbin-Watson parameters and visual observations of fitted line, residuals and autocorrelation function

[2] = Steady-state absorption and fluorescence properties (spectra, quantum yield, 700/800 nm emission); format: physicochemical; settings: for fluorescence quantum yield: relative to ICG
Experimental: The polymethine dyes and their derivatives were dissolved in […] of DMSO as stock solutions. To prevent inner effect in the fluorescent measurements, aliquots […] were diluted with the solvent of interest until the absorbance at the excitation wavelength was 0.15. UV-Vis spectra were obtained on Beckman Coulter DU 640 UV-Vis spectrometer (Beckman Coulter, Inc., Fullerton, Calif.). Emission spectra were recorded on a Fluorolog-3 spectrofluorometer (HORIBA Jobin Yvon Inc., Edison, N.J.).
Fluorescent spectra were recorded by using 620 nm and 720 nm excitation wavelengths. Fluorescent quantum yield was measured at 720 nm with slits width of 5 nm for both excitation and emission. The fluorescence quantum yield of ICG in DMSO (Ψ=0.12) was used as a reference standard. All measurements were conducted at room temperature. Excitation scans were performed in the range of 500-720 nm with monitoring at 735 nm fluorescence intensity, and 600-815 nm with monitoring at 830 nm. Excitation scans were corrected by lamp intensity using the equation F=S/R.
The ratios of the 700 nm and 800 nm emission peaks were examined in different environments and simulated dilute conditions (e.g., binding to albumin). For this, the fluorescence behavior of compound 3 was determined in different solvents (i.e., methanol, water, and DMSO), pH levels (i.e., 2.5 and 10), and in the presence of albumin (which binds the dyes in its drug binding pocket). The spectral analysis was conducted as described above in Example 2. Spectra at pH 2.5 and 10.0 were obtained by titrating 20% DMSO/water solution with diluted aqueous HCl and NaOH.

[3] = In vivo dichromic fluorescence imaging of mouse ears; parameters: species or system nude mouse; settings: 2 nmol intravenously
Text: To assess the retention of dichromic fluorescence in vivo, 2 nmol of symmetrical ICG (compound 2) and nonsymmetrical cypate-S (compound 3) were each injected intravenously in a nude mouse. Mouse ears were imaged with a Li-Cor Odyssey system at two excitation (680 nm and 780 nm) and emission (700 and 800 nm) channels. […] Thus, the dual fluorescence contrast mechanism is tenable in vivo.

[4] = DMSO; excitation 773 nm; emission 820 nm; from Berezin et al., 2007; cited from earlier work
[5] = cited from earlier work
casein kinase II = test: Kinase-Glo Luminescent Kinase Assay; format: cell-based; settings: A549 cells
Experimental: The following example was designed to further explore the use of cypate diserine (6) to monitor the activity of endogenous kinases. A549 cells (which express casein kinase II) were incubated with a standard casein kinase II peptide substrate or compound 6 (which is not specific for casein kinase II). Kinase activity was measured with the Kinase-Glo Luminescent Kinase Assay Platform (Promega Corp., Madison, Wis.) per the manufacturer's instructions. This assay measures free ATP in the reaction mixture. As phosphorylation increases, the levels of ATP decrease, and consequently, luminescence is inversely proportional to kinase activity.

A549 cells = test: Two-channel imaging of fluorescence enhancement of A549 cells; format: cell-based, human; settings: 1 μM
Experimental: It was hypothesized that since cypate diserine could be phosphorylated in cells, it is possible that the initial phosphorylation of one serine (as indicated by an increase in the 700 nm channel) could be followed by phosphorylation of the second serine. […] To test this notion, A549 cells were incubated with of 1 μM of compound 6.

caspase-3 [6] = target: T1, caspase-3 (Homo sapiens, UniProt P42574); parameters: purchased CalBiochem; settings: read-out: KM of the standard; cited from earlier work
T1 sequence (P42574 29-175 limits assumed): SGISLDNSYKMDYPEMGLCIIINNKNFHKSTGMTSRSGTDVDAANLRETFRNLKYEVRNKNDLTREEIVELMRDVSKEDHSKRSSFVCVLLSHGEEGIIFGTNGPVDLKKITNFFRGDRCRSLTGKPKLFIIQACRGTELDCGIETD
T1 sequence (P42574 176-277 limits assumed): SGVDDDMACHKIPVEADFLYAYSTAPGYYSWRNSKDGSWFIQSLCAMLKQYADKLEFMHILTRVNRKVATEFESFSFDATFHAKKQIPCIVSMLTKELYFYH

caspase-3 [7] = target: T1, caspase-3; test: In vivo imaging of caspase-3 activity in mouse ears; parameters: species or system nude mouse; settings: 2 nmol intravenously; caspase-3-injected ear relative to saline-injected ear
Experimental: To assess the NIR optical imaging of caspase-3 activity, 2 nmol of the pre-quenched (FRET) cypate-DEVD (SEQ ID NO:4) probe was injected intravenously in a nude mouse, followed by intradermal injection of caspase-3 solution (right pinna) or saline (left pinna). This approach provides positive and negative controls in one set of experiments. Mouse ears were imaged with Li-Cor Odyssey single-channel (805 nm) NIR imaging system (Li-Cor Biosciences, Lincoln, Neb.). Images were captured before treatment, after injection of a probe and after intradermal injection of caspase-3 in the ear.

caspase-3 [8] = target: T1, caspase-3; test: Enzyme kinetics of NIR caspase-3 probe; format: biochemical; parameters: purchased CalBiochem; settings: non-linear fit; 37° C.
Experimental: To examine the kinetics, a caspase-3 substrate was prepared using the standard FRET method where the tetrapeptide Asp-Glu-Val-Asp (DEVD—SEQ ID NO:4) was flanked by two cypate dyes (cypate-DEVD (SEQ ID NO:4) probe). Enzyme assays were performed with a fluorometer by using commercially available recombinant caspase-3 (CalBiochem). An aliquot of the cypate-DEVD (SEQ ID NO:4) probe (substrate concentrations ranged from 70 nM to 100 μM) was dissolved in DMSO and added to a buffer comprising 10 mM PIPES, pH 7.4, 2 mM EDTA, 0.1% CHAPS, and 5 mM DTT. Five units of the enzyme were added, and the assay was performed at 37° C. A control experiment under the same conditions but with no enzyme was conducted at the same time. The apparent Km for the cypate-DEVD (SEQ ID NO:4) probe for caspase-3 was calculated with the Cheng-Prusoff equation: […], where [S] is the concentration of substrate and Ki is the published inhibitory constant of DEVD (SEQ ID NO:4)-CHO. To generate EC50 values, initial rates were determined from the linear portion of substrate hydrolysis and were plotted against log-inhibitor concentration (DEVD (SEQ ID NO:4)-CHO). The apparent kcat values were calculated using the equation kcat=V(Km+[S])/[Et][S], where [S] is the concentration of substrate, [E] is the concentration of enzyme, and Vis the initial rate of cleavage. […]

CC1(C)C(/C=C/C=C/C=C/C=C2/N(CCCCS(=O)(=O)O)c3ccc4ccccc4c3C2(C)C)=[N+](CCCCS(=O)(=O)[O-])c2ccc3ccccc3c21 [Compound 2, indocyanine green, reference compound]
Lifetime at 700 nm (ns) ([1]; DMSO): 1.50^d ns
contribution of the 700 nm emission in the overall fluorescence spectra [2]: 24%
visibility of blood vessels in the 700 and 800 nm channels [3]: showed the blood vessels only at the 800 nm channel
Lifetime at 800 nm (ns) [4]: 0.97^c ns
fluorescence quantum yield (reference standard) ([5]; in DMSO): 0.12
fluorescence quantum yield (reference) ([5]; in methanol): 0.090

CC1(C)C(/C=C/C=C/C=C/C=C2\N(CCC(=O)NC(CO)C(=O)O)c3ccc4ccccc4c3C2(C)C)=[N+](CCC(=O)NC(CO)C(=O)O)c2ccc3ccccc3c21 (stereo not drawn) [Compound 6, di-serine cypate]
molar absorption coefficient ([2]; methanol): about 220,000 M^−1 cm^−1
ratio of the 700/800 nm emission peaks ([2]; methanol): 0.36
fluorescence quantum yield ([2]; methanol): 0.059
luminescence (inversely proportional to kinase activity) (casein kinase II): concentration-dependent decreases in luminescence
fluorescence in the 700 nm and 800 nm emission channels (A549 cells; 5 and 15 minutes): early fluorescence increase in the 700 nm emission channel
fluorescence in the 700 nm and 800 nm emission channels (A549 cells; 30 and 45 minutes): fluorescence enhancement in both channels

CC1(C)C(/C=C/C=C/C=C/C=C2/N(CCC(=O)O)c3ccc4ccccc4c3C2(C)C)=[N+](CCC(=O)[O-])c2ccc3ccccc3c21 [Compound 1, cypate, reference compound]
Lifetime at 700 nm (ns) ([1]; DMSO): Weak signal
fluorescence lifetime at 800 nm ([1]; in DMSO): 0.86 ns
contribution of the 700 nm emission in the overall fluorescence spectra [2]: 18%
Lifetime at 800 nm (ns) [4]: 0.87^c ns

CC1(C)C(/C=C/C=C/C=C/C=C2\N(CCC(=O)NC(COP(=O)(O)O)C(=O)O)c3ccc4ccccc4c3C2(C)C)=[N+](CCC(=O)NC(CO)C(=O)O)c2ccc3ccccc3c21 (stereo not drawn) [Compound 7, monophosphoserine/serine cypate derivative]
increase of the 700/800 nm ratio relative to symmetrical compound 6 ([2]; methanol): 7 fold
molar absorption coefficient ([2]; methanol): about 220,000 M^−1 cm^−1
ratio of the 700/800 nm emission peaks ([2]; methanol): 2.5
fluorescence quantum yield ([2]; methanol): 0.057

cypate-NH2 [Compound 4]
Lifetime at 700 nm (ns) ([1]; DMSO): 1.40 ns
Lifetime at 800 nm (ns) ([1]; DMSO, excitation 773 nm, emission 820 nm): 0.90 ns
contribution of the 700 nm emission in the overall fluorescence spectra [2]: 82%

Ac-DEVD-pNA [Ac-DEVD (SEQ ID NO:4)-pNA]
Km (caspase-3 [6]): 11 µM

cypate-DEVD (SEQ ID NO:4) probe: caspase-3 FRET substrate: tetrapeptide Asp-Glu-Val-Asp flanked by two cypate dyes
magnitude and area of increase of fluorescence intensity (805 nm) (caspase-3 [7]): significantly greater in the caspase-3-injected ear
Km (caspase-3 [8]): 15 ± 3 µM
kcat (caspase-3 [8]): 1.02 ± 0.06 s⁻¹

From patent US11406719B2, “Dichromic fluorescent compounds” (Washington University, priority 2008, dated 2022)
